Data from PubChem BioAssay (NCI).
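Grown in 96-well plates, cells were treated for 48 hours with each compound at five concentrations. Insufficient inhibition: endpoint recorded as highest concentration tested. TGI is the concentration that stops growth completely.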

How the values were obtained:
Test in all cases: NCI-60 cell line screen, 48 h
OVCAR-5 ovarian = system: OVCAR-5 ovarian
A549 NSCLC = system: A549 NSCLC
K-562 leukemia = system: K-562 leukemia
MALME-3M melanoma = system: MALME-3M melanoma
OVCAR-8 ovarian = system: OVCAR-8 ovarian
UACC-62 melanoma = system: UACC-62 melanoma
RXF 393 renal = system: RXF 393 renal
HL-60(TB) leukemia = system: HL-60(TB) leukemia
HS 578T breast = system: HS 578T breast
SF-268 CNS = system: SF-268 CNS
HOP-62 NSCLC = system: HOP-62 NSCLC
BT-549 breast = system: BT-549 breast
UACC-257 melanoma = system: UACC-257 melanoma
NCI-H460 lung = system: NCI-H460 lung
HCT-116 colon = system: HCT-116 colon
786-0 renal = system: 786-0 renal
SNB-19 CNS = system: SNB-19 CNS
SR leukemia = system: SR leukemia
MDA-N = system: MDA-N
NCI/ADR-RES ovarian = system: NCI/ADR-RES ovarian
A498 renal = system: A498 renal
DU-145 prostate = system: DU-145 prostate
OVCAR-3 ovarian = system: OVCAR-3 ovarian
TK-10 renal = system: TK-10 renal
IGROV1 ovarian = system: IGROV1 ovarian
LOX IMVI melanoma = system: LOX IMVI melanoma
M14 melanoma = system: M14 melanoma
NCI-H226 lung = system: NCI-H226 lung
MOLT-4 leukemia = system: MOLT-4 leukemia
PC-3 prostate = system: PC-3 prostate
SK-MEL-28 melanoma = system: SK-MEL-28 melanoma
MDA-MB-231 breast = system: MDA-MB-231 breast
HOP-92 NSCLC = system: HOP-92 NSCLC
UO-31 renal = system: UO-31 renal
ACHN renal = system: ACHN renal
NCI-H522 lung = system: NCI-H522 lung
HCT-15 colon = system: HCT-15 colon
EKVX NSCLC = system: EKVX NSCLC
MCF7 breast = system: MCF7 breast
SK-MEL-5 melanoma = system: SK-MEL-5 melanoma
OVCAR-4 ovarian = system: OVCAR-4 ovarian
U251 CNS = system: U251 CNS
T-47D breast = system: T-47D breast
HCC-2998 colon = system: HCC-2998 colon
HT29 colon = system: HT29 colon
SK-OV-3 ovarian = system: SK-OV-3 ovarian
COLO 205 colon = system: COLO 205 colon
CCRF-CEM leukemia = system: CCRF-CEM leukemia
MDA-MB-435 = system: MDA-MB-435
CAKI-1 renal = system: CAKI-1 renal
SF-295 CNS = system: SF-295 CNS
SN12C renal = system: SN12C renal
KM12 colon = system: KM12 colon
NCI-H23 lung = system: NCI-H23 lung
SW-620 colon = system: SW-620 colon
SK-MEL-2 melanoma = system: SK-MEL-2 melanoma
SF-539 CNS = system: SF-539 CNS
RPMI-8226 leukemia = system: RPMI-8226 leukemia
SNB-75 CNS = system: SNB-75 CNS

CC[C@@H](C)[C@H](NC(=O)[C@H](Cc1ccccc1)NCC(F)(F)F)C(=O)OC(C)(C)C
TGI (OVCAR-5 ovarian): > 100 µM
TGI (A549 NSCLC): > 100 µM
TGI (K-562 leukemia): > 100 µM
TGI (MALME-3M melanoma): > 100 µM
TGI (OVCAR-8 ovarian): > 100 µM
TGI (UACC-62 melanoma): > 100 µM
TGI (RXF 393 renal): > 100 µM
TGI (HL-60(TB) leukemia): > 100 µM
TGI (HS 578T breast): > 100 µM
TGI (SF-268 CNS): > 100 µM
TGI (HOP-62 NSCLC): > 100 µM
TGI (BT-549 breast): > 100 µM
TGI (UACC-257 melanoma): > 100 µM
TGI (NCI-H460 lung): > 100 µM
TGI (HCT-116 colon): > 100 µM
TGI (786-0 renal): > 100 µM
TGI (SNB-19 CNS): > 100 µM
TGI (SR leukemia): > 100 µM
TGI (MDA-N): > 100 µM
TGI (NCI/ADR-RES ovarian): > 100 µM
TGI (A498 renal): > 100 µM
TGI (DU-145 prostate): > 100 µM
TGI (OVCAR-3 ovarian): > 100 µM
TGI (TK-10 renal): > 100 µM
TGI (IGROV1 ovarian): > 100 µM
TGI (LOX IMVI melanoma): > 100 µM
TGI (M14 melanoma): > 100 µM
TGI (NCI-H226 lung): > 100 µM
TGI (MOLT-4 leukemia): > 100 µM
TGI (PC-3 prostate): > 100 µM
TGI (SK-MEL-28 melanoma): > 100 µM
TGI (MDA-MB-231 breast): > 100 µM
TGI (HOP-92 NSCLC): > 100 µM
TGI (UO-31 renal): > 100 µM
TGI (ACHN renal): > 100 µM
TGI (NCI-H522 lung): > 100 µM
TGI (HCT-15 colon): > 100 µM
TGI (EKVX NSCLC): > 100 µM
TGI (MCF7 breast): > 100 µM
TGI (SK-MEL-5 melanoma): > 100 µM
TGI (OVCAR-4 ovarian): > 100 µM
TGI (U251 CNS): > 100 µM
TGI (T-47D breast): > 100 µM
TGI (HCC-2998 colon): > 100 µM
TGI (HT29 colon): > 100 µM
TGI (SK-OV-3 ovarian): > 100 µM
TGI (COLO 205 colon): > 100 µM
TGI (CCRF-CEM leukemia): > 100 µM
TGI (MDA-MB-435): > 100 µM
TGI (CAKI-1 renal): > 100 µM
TGI (SF-295 CNS): > 100 µM
TGI (SN12C renal): > 100 µM
TGI (KM12 colon): > 100 µM
TGI (NCI-H23 lung): > 100 µM
TGI (SW-620 colon): > 100 µM

CC(=O)OCC1OC(N2C(C)=C(C(C)=O)C(c3ccc(Cl)cc3)C(C#N)=C2S)C(OC(C)=O)C(OC(C)=O)C1OC(C)=O (stereo unspecified)
TGI (OVCAR-5 ovarian): > 100 µM
TGI (A549 NSCLC): > 100 µM
TGI (K-562 leukemia): > 100 µM
TGI (MALME-3M melanoma): > 100 µM
TGI (OVCAR-8 ovarian): > 100 µM
TGI (UACC-62 melanoma): 60.6 µM
TGI (RXF 393 renal): > 100 µM
TGI (HL-60(TB) leukemia): > 100 µM
TGI (HS 578T breast): > 100 µM
TGI (SF-268 CNS): > 100 µM
TGI (HOP-62 NSCLC): > 100 µM
TGI (BT-549 breast): > 100 µM
TGI (UACC-257 melanoma): > 100 µM
TGI (NCI-H460 lung): > 100 µM
TGI (HCT-116 colon): > 100 µM
TGI (786-0 renal): > 100 µM
TGI (SNB-19 CNS): > 100 µM
TGI (SR leukemia): > 100 µM
TGI (MDA-N): > 100 µM
TGI (NCI/ADR-RES ovarian): > 100 µM
TGI (A498 renal): > 100 µM
TGI (DU-145 prostate): > 100 µM
TGI (OVCAR-3 ovarian): > 100 µM
TGI (TK-10 renal): > 100 µM
TGI (IGROV1 ovarian): > 100 µM
TGI (LOX IMVI melanoma): > 100 µM
TGI (M14 melanoma): > 100 µM
TGI (SK-MEL-2 melanoma): > 100 µM
TGI (NCI-H226 lung): > 100 µM
TGI (MOLT-4 leukemia): 82.2 µM
TGI (PC-3 prostate): > 100 µM
TGI (SK-MEL-28 melanoma): > 100 µM
TGI (SF-539 CNS): > 100 µM
TGI (MDA-MB-231 breast): > 100 µM
TGI (HOP-92 NSCLC): > 100 µM
TGI (UO-31 renal): 88.8 µM
TGI (ACHN renal): > 100 µM
TGI (NCI-H522 lung): > 100 µM
TGI (HCT-15 colon): > 100 µM
TGI (MCF7 breast): > 100 µM
TGI (RPMI-8226 leukemia): > 100 µM
TGI (SK-MEL-5 melanoma): > 100 µM
TGI (OVCAR-4 ovarian): > 100 µM
TGI (U251 CNS): > 100 µM
TGI (T-47D breast): > 100 µM
TGI (HCC-2998 colon): > 100 µM
TGI (HT29 colon): > 100 µM
TGI (COLO 205 colon): 35.6 µM
TGI (CCRF-CEM leukemia): > 100 µM
TGI (MDA-MB-435): > 100 µM
TGI (CAKI-1 renal): > 100 µM
TGI (SF-295 CNS): > 100 µM
TGI (SN12C renal): > 100 µM
TGI (KM12 colon): > 100 µM
TGI (SW-620 colon): > 100 µM
TGI (SNB-75 CNS): > 100 µM
